Assay results reported in patent US5997871A (priority 1996, dated 1999).

B1: pure β-chain: pure β-chain of hCG (protein, UniProt P0DN86 21-165, looked up)
Choriogonadotropin subunit …: SKEPLRPRCRPINATLAVEKEGCPVCITVNTTICAGYCPTMTRVLQGVLPALPQVVCNYRDVRFESIRLPGCPRGVNPVVSYAVALSCQCALCRRSTTDCGGPKDHPLTCDDPRFQDSSSSKAPPPSLPSPSRLPGPSDTPILPQ
B2: partially purified β-hCG: native partially purified whole β-chain of hCG (protein, UniProt P0DN86 21-165, looked up)
Choriogonadotropin subunit …: B1 Choriogonadotropin subunit …
B3: recombinant β-hCG (purified): purified recombinant β-hCG (protein, UniProt P0DN86 21-165, looked up)
Choriogonadotropin subunit …: B1 Choriogonadotropin subunit …

Experiments:
KS Y-1 or KS-SLK cells = test: KS clonogenic assay in methylcellulose; format: cell-based, human
Procedure: Briefly, the KS Y-1 cells were obtained from mononuclear cells isolated from pleural effusion of an AIDS patient with KS involving the lungs. After the depletion of T lymphocytes, monocytes/macrophages and fibroblasts by the cytotoxicity method, using monoclonal antibodies against CD2, CD3, CD4, CD8, CD10 and CD14 membrane antigens and baby rabbit complement, the cells were cultured in the absence of exogenous growth factors to select for transformed cells.

KS Y-1 induced tumors = test: KS Y-1 tumors induced in immunodeficient mice; details: compared to β-hCG peptides 45-57 and 109-119
KS tumors and cells = test: Overall anti-KS activity of hCG preparations and peptides in vitro and in vivo; details: for anti-KS effects: in vitro and in vivo animal model data
HIV = HIV assays (anti-viral effects)

| Molecule | inhibition in clonogenic assays (KS Y-1 or KS-SLK cells) | anti-KS activity of other peptides (KS Y-1 induced tumors) | other results |
| --- | --- | --- | --- |
| α-hCG peptide 88-92: α-hCG peptide of amino acids 88-92 (YYHKS; UniProt P01215 112-116, looked up, fragment) | little or no inhibition | inactive | – |
| β-hCG peptide 6-40: β-hCG peptide 6-40, forms part of the β-core (RPRCRPINATLAVEKEGCPVCITVNTTICAGYCPT; UniProt P0DN86 26-60, looked up, fragment) | – | slight activity | – |
| β-hCG peptide 7-40: β-hCG peptide of amino acids 7-40 (PRCRPINATLAVEKEGCPVCITVNTTICAGYCPT; UniProt P0DN86 27-60, looked up, fragment) | little or no inhibition | – | – |
| β-hCG peptide 34-49: β-hCG peptide of amino acids 34-49 (CAGYCPTMTRVLQGVL; UniProt P0DN86 54-69, looked up, fragment) | little or no inhibition | inactive | – |
| β-hCG peptide 38-57: β-hCG peptide of amino acids 38-57, overlaps satellin A1 (CPTMTRVLQGVLPALPQVVC; UniProt P0DN86 58-77, looked up, fragment) | little or no inhibition | slight activity | – |
| β-hCG peptide 55-90: β-hCG peptide 55-90, forms part of the β-core (VVCNYRDVRFESIRLPGCPRGVNPVVSYAVALSCQC; UniProt P0DN86 75-110, looked up, fragment) | – | slight activity | – |
| β-hCG peptide 57-93: β-hCG peptide of amino acids 57-93 (CNYRDVRFESIRLPGCPRGVNPVVSYAVALSCQCALC; UniProt P0DN86 77-113, looked up, fragment) | little or no inhibition | inactive | – |
| β-hCG peptide 74-95: β-hCG peptide of amino acids 74-95 (RGVNPVVSYAVALSCQCALCRR; UniProt P0DN86 94-115, looked up, fragment) | little or no inhibition | inactive | – |
| β-hCG peptide 93-100: β-hCG peptide of amino acids 93-100 (CRRSTTDC; UniProt P0DN86 113-120, looked up, fragment) | – | inactive | – |
| β-hCG peptide 100-110: β-hCG peptide of amino acids 100-110 (CGGPKDHPLTC; UniProt P0DN86 120-130, looked up, fragment) | little or no inhibition | inactive | – |
| β-hCG peptide 109-119: synthetic peptide of amino acid numbers 109-119 of the beta subunit of hCG (TCDDPRFQDSS) | – | – | anti-tumor (anti-KS) effects in clonogenic assays (KS Y-1 or KS-SLK cells; 50 nmoles/ml, 2 KS neoplastic cell lines, 10 days): strongest anti-tumor effects; activities of native hCG preparations (anti-KS, anti-viral, pro-hematopoietic) mimicked or retained (KS tumors and cells): mimicked; anti-KS effects (KS tumors and cells): have anti-KS effects; anti-viral effects (HIV): strongest anti-viral effects |
| B1 | – | – | anti-KS effect in clonogenic assays (KS Y-1 or KS-SLK cells; pure subunit chains): no anti-KS effect |
| B2 | – | – | anti-KS effects (KS tumors and cells): have anti-KS effects; anti-KS effects (KS tumors and cells; listed as native partially purified whole β-chain): considerable anti-KS activity |
| B3 | – | – | anti-KS effects (KS tumors and cells): little or no effect |
